This passage reports Intrinsic activity and pKi results from ChEMBL document CHEMBL3879907, “8-azabicyclo[3.2.1]octane compounds as mu opioid receptor antagonists” (2014).

In test [1] the target is Mu-type opioid receptor (Homo sapiens) (UniProt P35372). The test is described as follows: Intrinsic activity at human mu opioid receptor expressed in CHOK1 cell membranes at 0.00001 to 20 uM after 30 mins by GTP-Eu nucleotide exchange assay relative to DAMGO. The class given is functional. Particulars: CHO-K1.
Chain of Mu-type opioid receptor (Homo sapiens) (P35372 whole entry): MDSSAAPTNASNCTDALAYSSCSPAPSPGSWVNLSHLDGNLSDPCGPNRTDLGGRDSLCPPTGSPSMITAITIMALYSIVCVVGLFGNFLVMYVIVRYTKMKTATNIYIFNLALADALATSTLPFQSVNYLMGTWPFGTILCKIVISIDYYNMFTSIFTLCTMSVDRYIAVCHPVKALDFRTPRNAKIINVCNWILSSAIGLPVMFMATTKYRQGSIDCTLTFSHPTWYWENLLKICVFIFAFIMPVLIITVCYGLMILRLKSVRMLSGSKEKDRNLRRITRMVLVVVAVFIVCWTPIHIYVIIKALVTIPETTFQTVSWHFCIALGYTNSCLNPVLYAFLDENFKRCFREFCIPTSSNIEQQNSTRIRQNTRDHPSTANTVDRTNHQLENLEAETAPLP
Test [2] has as its target Kappa-type opioid receptor (Cavia porcellus, UniProt P41144). The test is described as follows: Displacement of [3H]-diprenorphine from guinea pig kappa opioid receptor expressed in CHOK1 cell membranes. The conditions noted are these: cho-k1. (Displacement assays read how much labelled ligand stays bound in the presence of the test substance.)
The target of test [3] is Delta-type opioid receptor (Homo sapiens, UniProt P41143). The test is described as follows: Displacement of [3H]-diprenorphine from human delta opioid receptor expressed in cell membranes.
Chain of Delta-type opioid receptor (P41143 whole entry): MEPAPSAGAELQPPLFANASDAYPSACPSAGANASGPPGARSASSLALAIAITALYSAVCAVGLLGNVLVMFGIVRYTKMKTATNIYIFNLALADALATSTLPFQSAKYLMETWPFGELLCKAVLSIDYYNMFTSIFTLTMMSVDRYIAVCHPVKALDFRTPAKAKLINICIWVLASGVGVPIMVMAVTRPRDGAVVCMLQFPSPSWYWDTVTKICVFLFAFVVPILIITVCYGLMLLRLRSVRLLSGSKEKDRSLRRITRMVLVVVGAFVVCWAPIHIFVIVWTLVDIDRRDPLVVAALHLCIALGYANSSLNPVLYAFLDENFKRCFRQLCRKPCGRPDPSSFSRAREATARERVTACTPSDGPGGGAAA

Chain of Kappa-type opioid receptor (P41144 whole entry): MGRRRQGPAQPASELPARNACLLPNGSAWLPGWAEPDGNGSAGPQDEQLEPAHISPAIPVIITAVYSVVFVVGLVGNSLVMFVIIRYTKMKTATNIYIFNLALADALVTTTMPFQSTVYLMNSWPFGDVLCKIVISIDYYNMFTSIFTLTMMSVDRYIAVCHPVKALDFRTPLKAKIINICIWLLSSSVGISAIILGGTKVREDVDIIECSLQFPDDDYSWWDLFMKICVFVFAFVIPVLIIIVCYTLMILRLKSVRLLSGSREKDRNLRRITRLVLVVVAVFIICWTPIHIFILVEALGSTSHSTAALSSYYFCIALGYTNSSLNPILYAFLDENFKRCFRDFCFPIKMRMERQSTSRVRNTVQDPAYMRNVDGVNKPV

Usually pKi stands for −log10 of the Ki, conventionally taken in molar units. On to `CN(C)CC[C@H](O)C(=O)N(CCN1[C@@H]2CC[C@H]1C[C@@H](c1cccc(C(N)=O)c1)C2)CC1CCCCC1`, for which, in test [1], the Intrinsic activity is < 40%. Further, the negative-log Ki (pKi) in test [2] and in test [3] was 7 to 10.5 in each case.
With `CC(C)(O)C(=O)N(CCCN1[C@@H]2CC[C@H]1C[C@@H](c1cccc(C(N)=O)c1)C2)Cc1ccccc1.O=C(O)C(F)(F)F`, in test [1], the Intrinsic activity was < 40%. The pKi in test [2] and in test [3] was 7 to 10.5 each time.
With `O=C(O)CC(=O)N(CCN1[C@@H]2CC[C@H]1C[C@@H](c1cccc(O)c1)C2)CC1CCCCC1`, in test [1], the Intrinsic activity is < 40%. The negative-log Ki (pKi) in test [2] and in test [3] was 7 to 10.5 each time.
Turning to `COC(=O)CCC(=O)N(CCN1[C@@H]2CC[C@H]1C[C@@H](c1cccc(C(N)=O)c1)C2)CC1CCCCC1`, in test [1], the Intrinsic activity is < 40%. Further, the pKi in test [2] and in test [3] was 7 to 10.5 each time.
Consider `NC(=O)c1cccc([C@H]2C[C@H]3CC[C@@H](C2)N3CCCN(CC2CCCCC2)C(=O)CO)c1`, for which the Intrinsic activity in test [1] is < 40%. Moreover, the negative logarithm of the Ki (pKi) in test [2] and in test [3] was 7 to 10.5 throughout.
As to `CC(C)(C)C(=O)N(CCN1[C@@H]2CC[C@H]1C[C@@H](c1cccc(C(N)=O)c1)C2)CC1CCCC1.O=C(O)C(F)(F)F`, in test [1], the Intrinsic activity is < 40%. In addition, the pKi in test [2] and in test [3] was 7 to 10.5 each time.
With `CC(C)CC(=O)N(Cc1ccccc1)[C@H](C)CN1[C@@H]2CC[C@H]1C[C@@H](c1cccc(O)c1)C2`, the Intrinsic activity in test [1] was < 40%. The negative logarithm of the Ki (pKi) in test [2] and in test [3] was 7 to 10.5 throughout.
Consider `CS(=O)(=O)CC(=O)N(CCN1[C@@H]2CC[C@H]1C[C@@H](c1cccc(C(N)=O)c1)C2)Cc1ccc(C(F)(F)F)cc1.O=C(O)C(F)(F)F`, for which the Intrinsic activity in test [1] was < 40%. The negative logarithm of the Ki (pKi) in test [2] and in test [3] was 7 to 10.5 in each case.
For the compound `CC(C)(C(=O)N(CCN1[C@@H]2CC[C@H]1C[C@@H](c1cccc(C(N)=O)c1)C2)CC1CCC1)S(C)(=O)=O.O=C(O)C(F)(F)F`, the Intrinsic activity in test [1] was < 40%. Also, the pKi in test [2] and in test [3] was 7 to 10.5 throughout.
Consider `CC(CO)(CO)C(=O)N(CCN1[C@@H]2CC[C@H]1C[C@@H](c1cccc(C(N)=O)c1)C2)CC1CCC1.O=C(O)C(F)(F)F`, for which, in test [1], the Intrinsic activity is < 40%. Moreover, the pKi in test [2] and in test [3] was 7 to 10.5 throughout.
Regarding `CCCCCNC(=O)N(CCN1[C@@H]2CC[C@H]1C[C@@H](c1cccc(C(N)=O)c1)C2)CC1CCCCC1`, in test [1], the Intrinsic activity was < 40%. For the same compound, the negative logarithm of the Ki (pKi) in test [2] and in test [3] was 7 to 10.5 each time.
Take `NC(=O)c1cccc([C@H]2C[C@H]3CC[C@@H](C2)N3CCCN(Cc2ccccc2)C(=O)CO)c1`: in test [1], the Intrinsic activity is < 40%. Besides, the pKi in test [2] and in test [3] was 7 to 10.5 in each case.
Regarding `NC(=O)c1cccc([C@H]2C[C@H]3CC[C@@H](C2)N3CCN(Cc2c(F)cccc2F)C(=O)[C@H]2CC[C@H](O)CC2)c1.O=C(O)C(F)(F)F`, in test [1], the Intrinsic activity is < 40%. The negative-log Ki (pKi) in test [2] and in test [3] was 7 to 10.5 each time.
In the case of `CC(=O)N(CCN1[C@@H]2CC[C@H]1C[C@@H](c1cccc(O)c1)C2)Cc1ccccc1`, in test [1], the Intrinsic activity was < 40%. The pKi in test [2] and in test [3] was 7 to 10.5 each time.
Regarding `CC(C)(CC(=O)O)CC(=O)N(CCN1[C@@H]2CC[C@H]1C[C@@H](c1cccc(O)c1)C2)CC1CCCCC1`, the Intrinsic activity in test [1] was < 40%. The pKi in test [2] and in test [3] was 7 to 10.5 throughout.
On to `CC(CO)(CO)C(=O)N(CCN1[C@@H]2CC[C@H]1C[C@@H](c1cccc(C(N)=O)c1)C2)CC1CCC(F)(F)CC1.O=C(O)C(F)(F)F`, for which, in test [1], the Intrinsic activity was < 40%. The pKi in test [2] and in test [3] was 7 to 10.5 each time.
As to `C[C@H](CN1[C@@H]2CC[C@H]1C[C@@H](c1cccc(O)c1)C2)N(Cc1ccccc1)C(=O)C1CCCC1`, in test [1], the Intrinsic activity is < 40%. Moreover, the pKi in test [2] and in test [3] was 7 to 10.5 throughout.
On to `NC(=O)c1cccc([C@H]2C[C@H]3CC[C@@H](C2)N3CCCN(Cc2ccccc2)C(=O)[C@@H](O)CO)c1.O=C(O)C(F)(F)F`, for which, in test [1], the Intrinsic activity is < 40%. For the same compound, the pKi in test [2] and in test [3] was 7 to 10.5 throughout.
With `O=C(O)CC1(CC(=O)N(CCN2[C@@H]3CC[C@H]2C[C@@H](c2cccc(O)c2)C3)CC2CCCCC2)CCCC1`, the Intrinsic activity in test [1] is < 40%. In addition, the negative-log Ki (pKi) in test [2] and in test [3] was 7 to 10.5 throughout.
As to `CC(C)CC(=O)N(CCN1[C@@H]2CC[C@H]1C[C@@H](c1cccc(O)c1)C2)CC1CCCCC1`, in test [1], the Intrinsic activity is < 40%. The negative logarithm of the Ki (pKi) in test [2] and in test [3] was 7 to 10.5 throughout.
On to `CCC(CC)C(=O)N(CCN1[C@@H]2CC[C@H]1C[C@@H](c1cccc(O)c1)C2)Cc1ccccc1`, for which the Intrinsic activity in test [1] is < 40%. The pKi in test [2] and in test [3] was 7 to 10.5 throughout.
As for `CS(=O)(=O)CC(=O)N(CCN1[C@@H]2CC[C@H]1C[C@@H](c1cccc(O)c1)C2)Cc1cccc(F)c1`, in test [1], the Intrinsic activity is < 40%. Besides, the negative-log Ki (pKi) in test [2] and in test [3] was 7 to 10.5 each time.
As for `CS(=O)(=O)CC(=O)N(CCc1ccc(F)cc1)CCN1[C@@H]2CC[C@H]1C[C@@H](c1cccc(C(N)=O)c1)C2.O=C(O)C(F)(F)F`, in test [1], the Intrinsic activity was < 40%. In addition, the pKi in test [2] and in test [3] was 7 to 10.5 each time.
On to `COCC(=O)N(CCN1[C@@H]2CC[C@H]1C[C@@H](c1cccc(C(N)=O)c1)C2)Cc1c(F)cccc1F.O=C(O)C(F)(F)F`, for which the Intrinsic activity in test [1] is < 40%. The pKi in test [2] and in test [3] was 7 to 10.5 throughout.
`O=C(O)CC(=O)N(CCN1[C@@H]2CC[C@H]1C[C@@H](c1cccc(O)c1)C2)Cc1cccc(F)c1`: the Intrinsic activity in test [1] was < 40%. The negative-log Ki (pKi) in test [2] and in test [3] was 7 to 10.5 throughout.
With `CC(C)(CO)C(=O)N(CCN1[C@@H]2CC[C@H]1C[C@@H](c1cccc(C(N)=O)c1)C2)CC1CCCCC1`, the Intrinsic activity in test [1] is < 40%. For the same compound, the negative-log Ki (pKi) in test [2] and in test [3] was 7 to 10.5 each time.
On to `COC(=O)CCC(=O)N(CCN1[C@@H]2CC[C@H]1C[C@@H](c1cccc(O)c1)C2)CC1CCCCC1`, for which the Intrinsic activity in test [1] is < 40%. The pKi in test [2] and in test [3] was 7 to 10.5 in each case.
For `CN(C)CCCC(=O)N(CCN1[C@@H]2CC[C@H]1C[C@@H](c1cccc(C(N)=O)c1)C2)CC1CCCCC1`, in test [1], the Intrinsic activity is < 40%. In addition, the pKi in test [2] and in test [3] was 7 to 10.5 throughout.
With `NC(=O)c1cccc([C@H]2C[C@H]3CC[C@@H](C2)N3CCN(CC2CCCC2)C(=O)CCO)c1.O=C(O)C(F)(F)F`, the Intrinsic activity in test [1] was < 40%. The pKi in test [2] and in test [3] was 7 to 10.5 throughout.
Take `NCC(=O)N(CCN1[C@@H]2CC[C@H]1C[C@@H](c1cccc(C(N)=O)c1)C2)CC1CCCCC1`: in test [1], the Intrinsic activity is < 40%. Further, the negative logarithm of the Ki (pKi) in test [2] and in test [3] was 7 to 10.5 throughout.
On to `NC(=O)c1cccc([C@H]2C[C@H]3CC[C@@H](C2)N3CCN(Cc2ccc(C(F)(F)F)cc2)C(=O)CO)c1.O=C(O)C(F)(F)F`, for which the Intrinsic activity in test [1] is < 40%. Moreover, the pKi in test [2] and in test [3] was 7 to 10.5 in each case.
